Experiment [1] concerns the target T1, human HDAC1 (Homo sapiens, UniProt Q13547).
T1 construct: GST (C); purchased BioMol SE-456; host or cells: baculovirus / Sf9 cells
In words: HDAC1 enzymatic activity assay (fluorogenic peptide). It is filed as biochemical. The conditions noted are these: 10-dose, 3-fold serial dilution, triplicate. On the procedure: (§1) Peptide substrates: all HDAC assays were performed using acetylated peptide substrates labeled with 7-amino-4-methylcoumarin (AMC): • Substrate for isoforms HDAC1, 2, 3, 6, 10, 11, and HeLa nuclear extract assays: acetylated fluorogenic peptide from p53 residues 379-382 (RHKKAc). • Substrate for isoforms HDAC4, 5, 7, 9: fluorogenic Boc-L-Lys (s-trifluoroacetyl)-AMC. • Substrate for HDAC8 assays: acetylated fluorogenic peptide from p53 residues 379-382 (RHKAcKAc).
(§2) 50 μl of peptide substrate (see “peptide substrates” section above) and an optimal concentration of the corresponding enzyme (see “enzymes” section above) in the assay buffer at a final DMSO concentration of 1% were incubated in the presence of gradient concentrations of inhibitors (10-dose IC50 mode with 3-fold serial dilution) at 30° C. for 2 hours. The reactions were carried out in a 96-well microplate for fluorometry in a 50 μl reaction volume. After the deacetylation reaction, Fluor-de-Lys-Developer (BioMol Cat. #KI-105) was added to each well to digest the deacetylated substrate, thereby producing the fluorescent signal. The reaction was carried out for 45 minutes at 30° C. with 5% CO2; the fluorescent signal was then measured using an excitation wavelength of 360 nm and an emission wavelength of 460 nm in a microplate-reading fluorometer (GeminiXS, Molecular Devices, Sunnyvale, CA). A curve of deacetylated standard (Biomol, Cat. #KI-142; made from 100 μM with 1:2 dilution and 10 doses, 6 μl) allowed the conversion of the fluorescent signal into micromoles of deacetylated product. All experiments were performed in triplicate. The IC50s were calculated by fitting the experimental data to dose-response curve. DMSO was used as negative control; Trichostatin A (Biomol Cat. #GR-309) was used as positive control inhibitor.
(§3) Enzymatic activity assays were carried out in 11 HDAC enzymes, including HDAC6.

The target in experiment [2] is T2, human HDAC2 (Homo sapiens, UniProt Q92769).
T2 construct: His (C); purchased BioMol SE-500; host or cells: baculovirus / Sf9 cells
Kind of experiment: HDAC2 enzymatic activity assay (fluorogenic peptide). The experiment is classed as biochemical. The following applies: 10-dose, 3-fold serial dilution, triplicate. On the procedure:
as §1, §2, §3

In experiment [3] the target is T3, human HDAC7 (Homo sapiens, UniProt Q8WUI4).
T3 construct: amino acids 518 end with GST N-terminal tag, MW=78 kDa; GST (N); purchased BioMol, Hamburg, Germany; host or cells: baculovirus expression system
T3 sequence (Q8WUI4 479-952 limits assumed): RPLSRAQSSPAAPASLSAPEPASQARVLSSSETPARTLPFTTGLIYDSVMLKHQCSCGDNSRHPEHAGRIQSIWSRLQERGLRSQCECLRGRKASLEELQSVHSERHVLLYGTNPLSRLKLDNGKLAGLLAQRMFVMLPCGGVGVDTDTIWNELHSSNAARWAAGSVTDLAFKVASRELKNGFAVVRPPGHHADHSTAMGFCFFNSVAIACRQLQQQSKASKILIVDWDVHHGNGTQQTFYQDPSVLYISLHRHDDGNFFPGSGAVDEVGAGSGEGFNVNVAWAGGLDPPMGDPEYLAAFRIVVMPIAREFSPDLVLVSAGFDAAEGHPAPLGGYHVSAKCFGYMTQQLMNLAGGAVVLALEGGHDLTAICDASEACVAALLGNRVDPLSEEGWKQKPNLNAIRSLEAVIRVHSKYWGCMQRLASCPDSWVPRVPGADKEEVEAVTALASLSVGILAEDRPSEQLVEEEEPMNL
Kind of experiment: HDAC7 enzymatic activity assay (fluorogenic peptide). It is filed as biochemical. The following applies: 10-dose, 3-fold serial dilution, triplicate. On the procedure: as §1, §2, §3

For experiment [4], the target named is T4, human HDAC8 (Homo sapiens, UniProt Q9BY41).
T4 construct: purchased BioMol SE-145; host or cells: E. coli
T4 sequence (Q9BY41 1-377): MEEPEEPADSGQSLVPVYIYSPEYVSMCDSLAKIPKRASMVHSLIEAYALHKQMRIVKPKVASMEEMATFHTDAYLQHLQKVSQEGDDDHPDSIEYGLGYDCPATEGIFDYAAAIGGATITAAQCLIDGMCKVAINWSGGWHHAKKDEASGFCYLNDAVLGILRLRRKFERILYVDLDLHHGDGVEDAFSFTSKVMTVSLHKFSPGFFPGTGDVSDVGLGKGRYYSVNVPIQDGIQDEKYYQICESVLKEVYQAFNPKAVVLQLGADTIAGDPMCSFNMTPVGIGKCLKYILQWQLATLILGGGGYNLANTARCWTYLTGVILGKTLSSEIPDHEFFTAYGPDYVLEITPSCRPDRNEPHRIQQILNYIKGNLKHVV
In words: HDAC8 enzymatic activity assay (fluorogenic peptide). It is filed as biochemical. The conditions noted are these: 10-dose, 3-fold serial dilution, triplicate. On the procedure:
as §1, §2, §3

Experiment [5] concerns HDAC enzymes. In words: Enzymatic activity assays in 11 HDAC enzymes (statements on the panel). It is filed as biochemical, human. The conditions noted are these: HDAC enzymes other than HDAC6. On the procedure:
as §1, §2, §3

Experiment [6] has as its system polycystic human cholangiocytes. In words: Intracellular Ca^2+ measurement (Fluo-4 AM). The experiment is classed as cell-based. The text has this:
As described previously [Banales J M et al. Hepatology 2009; Perugorria M J et al. Nature Reviews G&H; Munoz-Garrido P et al. Journal of Hepatology 2015], polycystic (human and rat) cholangiocytes are characterized by a decrease in intracellular Ca^2+ levels, which promotes their proliferation. Furthermore, it has been proven that chronic treatment with UDCA is capable of partially inhibiting the proliferation of polycystic human cholangiocytes through the normalization of intracellular Ca^2+ levels in experimental models [Munoz-Garrido P et al. Journal of Hepatology 2015] and patients [D'Agnolo H M A, et al. Journal of Hepatology 2016] with PLD. […] To that end, the “Fluo-4 AM” (Thermo Fisher Scientific) intracellular Ca^2+ measurement method was used. A Ca^2+ ionophore (i.e., A23187, Sigma) was used as positive control.

T2 sequence (Q92769 whole entry): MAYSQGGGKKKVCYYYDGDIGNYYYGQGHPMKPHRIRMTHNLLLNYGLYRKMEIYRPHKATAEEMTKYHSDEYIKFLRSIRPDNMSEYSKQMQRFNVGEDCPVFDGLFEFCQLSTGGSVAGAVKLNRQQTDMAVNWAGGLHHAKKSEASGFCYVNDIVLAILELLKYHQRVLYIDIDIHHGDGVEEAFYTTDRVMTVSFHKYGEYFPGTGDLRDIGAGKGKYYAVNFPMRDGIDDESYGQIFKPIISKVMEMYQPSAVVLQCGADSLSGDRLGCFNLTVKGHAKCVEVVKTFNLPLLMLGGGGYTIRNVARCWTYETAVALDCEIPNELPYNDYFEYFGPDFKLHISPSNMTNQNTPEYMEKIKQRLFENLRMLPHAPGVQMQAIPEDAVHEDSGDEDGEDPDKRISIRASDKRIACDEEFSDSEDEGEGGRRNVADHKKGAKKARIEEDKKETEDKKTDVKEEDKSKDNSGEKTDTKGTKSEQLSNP
T1 sequence (Q13547 whole entry): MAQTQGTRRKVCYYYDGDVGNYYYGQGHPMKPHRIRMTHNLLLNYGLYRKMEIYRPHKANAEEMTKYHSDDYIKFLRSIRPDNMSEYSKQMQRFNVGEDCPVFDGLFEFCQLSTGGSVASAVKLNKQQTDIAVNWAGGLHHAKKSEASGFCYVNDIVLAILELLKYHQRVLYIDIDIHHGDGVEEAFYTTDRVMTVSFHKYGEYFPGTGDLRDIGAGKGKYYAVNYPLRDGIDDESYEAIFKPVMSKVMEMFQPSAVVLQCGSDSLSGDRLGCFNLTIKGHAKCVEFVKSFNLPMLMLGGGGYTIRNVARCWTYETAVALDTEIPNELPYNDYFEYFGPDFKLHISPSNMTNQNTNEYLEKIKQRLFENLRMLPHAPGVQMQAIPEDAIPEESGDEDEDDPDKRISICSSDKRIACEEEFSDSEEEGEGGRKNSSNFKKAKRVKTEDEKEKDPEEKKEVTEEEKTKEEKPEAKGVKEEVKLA

Regarding `C[C@H](CCC(=O)NCc1ccc(C(=O)NO)cc1)[C@H]1CC[C@H]2[C@@H]3[C@@H](O)C[C@@H]4C[C@H](O)CC[C@]4(C)[C@H]3CC[C@]12C` [Compound Ia], the IC50 in experiment [1] is 10.1 µM; in experiment [2] it was 18.8 µM; in experiment [3], 7.47 µM; in experiment [4] it was 0.894 µM. For the same molecule, the “inhibitory capacity with respect to the rest of the HDAC enzymes” value in experiment [5] is listed as “micromolar range”. Further, the “intracellular Ca^2+ levels” value in experiment [6] is “increasing intracellular Ca^2+ levels”.

Consider `C[C@H](CCC(=O)NCC(=O)NCc1ccc(C(=O)NO)cc1)[C@H]1CC[C@H]2[C@@H]3[C@@H](O)C[C@@H]4C[C@H](O)CC[C@]4(C)[C@H]3CC[C@]12C` [Ib, 4-((2-((R)-4 ((3R,5S,7S,8R,9S,10S,13R,14S,17R)-3,7-dihydroxy-10,13-dimethylhexadecahydro-1H-cyclopenta[a]phenanthren-17-yl)pentanamide)acetamido)methyl)-N-hydroxybenzamide], for which the IC50 in experiment [1] amounted to 9.01 µM; in experiment [2] it was 13.2 µM; in experiment [3], 17.6 µM; in experiment [4], 0.615 µM. The “inhibitory capacity with respect to the rest of the HDAC enzymes” value in experiment [5] is “micromolar range”. Moreover, the “intracellular Ca^2+ levels” value in experiment [6] is given as “increasing intracellular Ca^2+ levels”.

In general, IC50 refers to the midpoint of a concentration-inhibition curve. Low values mean greater potency in that assay, high ones weaker potency in that assay.

Values taken from US11833160B2, “Ursodeoxycholic acid derivatives as HDAC inhibitors for the treatment of polycystic diseases” (UNIVERSIDAD DEL PAIS VASCO/EUSKAL HERRIKO UNIBERTSITATEA, priority 2017, dated 2023).
